From patent publication US8574563B2 (Bristol-Myers Squibb Company, priority 2006, dated 2013)
Read-outs that look alike come from different tables or passages of the source.

System: HCV 1b-377-neo replicon cells
Test: HCV replicon assay, HCV 1b-377-neo replicon cells (1b FRET)
Format: cell-based, Hepatitis C virus genotype 1b
Details: HCV 1b-377-neo replicon cells, HCV 1b genotype; for EC50: read-out: EC50 range against HCV 1b (Table 2, Range)
Method in brief: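 Compounds were tested in genotype 1b subgenomic replicon cells carrying a neomycin marker, alongside a matched replicon line with an NS5A Y2065H substitution that confers resistance to a reference NS5A inhibitor.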

SMILES	EC50 (Hepatitis C virus) [nM]	also measured
COC(=O)N[C@@H](C(=O)N1CCC[C@H]1c1ncc(-c2ccc(-c3ccc(-c4cnc([C@@H]5CCCN5C(=O)C(c5cnc6ccccc6c5)N(C)C)[nH]4)cc3)cc2)[nH]1)c1ccccc1 (stereo partly drawn) [Example 84-52, methyl ((1R)-2-((2S)-2-(5-(4′-(2-((2S)-1-((dimethylamino)(3-quinolinyl)acetyl)-2-pyrrolidinyl)-1H-imidazol-5-yl)-4-biphenylyl)-1H-imidazol-2-yl)-1-pyrrolidinyl)-2-oxo-1-phenylethyl)carbamate]	0.001 to 0.999	
COC(=O)N[C@@H](C(=O)N1CCC[C@H]1c1ncc(-c2ccc(-c3ccc(-c4cnc([C@@H]5CCCN5C(=O)C(c5ccc6sc(C)nc6c5)N(C)C)[nH]4)cc3)cc2)[nH]1)c1ccccc1 (stereo partly drawn) [Example 84-53, methyl ((1R)-2-((2S)-2-(5-(4′-(2-((2S)-1-((dimethylamino)(2-methyl-1,3-benzothiazol-5-yl)acetyl)-2-pyrrolidinyl)-1H-imidazol-5-yl)-4-biphenylyl)-1H-imidazol-2-yl)-1-pyrrolidinyl)-2-oxo-1-phenylethyl)carbamate]	0.001 to 0.999	
COC(=O)N[C@@H](C(=O)N1CCC[C@H]1c1ncc(-c2ccc(-c3ccc(-c4cnc([C@@H]5CCCN5C(=O)C(c5cccc(C(F)(F)F)c5)N(C)C)[nH]4)cc3)cc2)[nH]1)c1ccccc1 (stereo partly drawn) [Example 84-54, methyl ((1R)-2-((2S)-2-(5-(4′-(2-((2S)-1-((dimethylamino)(3-(trifluoromethyl)phenyl)acetyl)-2-pyrrolidinyl)-1H-imidazol-5-yl)-4-biphenylyl)-1H-imidazol-2-yl)-1-pyrrolidinyl)-2-oxo-1-phenylethyl)carbamate]	0.001 to 0.999	
COC(=O)N[C@@H](C(=O)N1CCC[C@H]1c1ncc(-c2ccc(-c3ccc(-c4cnc([C@@H]5CCCN5C(=O)C(c5ccccc5C(F)(F)F)N(C)C)[nH]4)cc3)cc2)[nH]1)c1ccccc1 (stereo partly drawn) [Example 84-55, methyl ((1R)-2-((2S)-2-(5-(4′-(2-((2S)-1-((dimethylamino)(2-(trifluoromethyl)phenyl)acetyl)-2-pyrrolidinyl)-1H-imidazol-5-yl)-4-biphenylyl)-1H-imidazol-2-yl)-1-pyrrolidinyl)-2-oxo-1-phenylethyl)carbamate]	0.001 to 0.999	
COC(=O)N[C@@H](C(=O)N1CCC[C@H]1c1ncc(-c2ccc(-c3ccc(-c4cnc([C@@H]5CCCN5C(=O)C(c5ccccc5Cl)N(C)C)[nH]4)cc3)cc2)[nH]1)c1ccccc1 (stereo partly drawn) [Example 84-56, methyl ((1R)-2-((2S)-2-(5-(4′-(2-((2S)-1-((2-chlorophenyl)(dimethylamino)acetyl)-2-pyrrolidinyl)-1H-imidazol-5-yl)-4-biphenylyl)-1H-imidazol-2-yl)-1-pyrrolidinyl)-2-oxo-1-phenylethyl)carbamate]	0.001 to 0.999	
COC(=O)N[C@@H](C(=O)N1CCC[C@H]1c1ncc(-c2ccc(-c3ccc(-c4cnc([C@@H]5CCCN5C(=O)C(c5cccc(Cl)c5)N(C)C)[nH]4)cc3)cc2)[nH]1)c1ccccc1 (stereo partly drawn) [Example 84-57, methyl ((1R)-2-((2S)-2-(5-(4′-(2-((2S)-1-((3-chlorophenyl)(dimethylamino)acetyl)-2-pyrrolidinyl)-1H-imidazol-5-yl)-4-biphenylyl)-1H-imidazol-2-yl)-1-pyrrolidinyl)-2-oxo-1-phenylethyl)carbamate]	0.001 to 0.999	
COC(=O)N[C@@H](C(=O)N1CCC[C@H]1c1ncc(-c2ccc(-c3ccc(-c4cnc([C@@H]5CCCN5C(=O)C(c5ccc(Cl)cc5)N(C)C)[nH]4)cc3)cc2)[nH]1)c1ccccc1 (stereo partly drawn) [Example 84-58, methyl ((1R)-2-((2S)-2-(5-(4′-(2-((2S)-1-((4-chlorophenyl)(dimethylamino)acetyl)-2-pyrrolidinyl)-1H-imdiazol-5-yl)-4-biphenylyl)-1H-imidazol-2-yl)-1-pyrrolidinyl)-2-oxo-1-phenylethyl)carbamate]		EC50: 0.001 to 0.999 nM
COC(=O)N[C@@H](C(=O)N1CCC[C@H]1c1ncc(-c2ccc(-c3ccc(-c4cnc([C@@H]5CCCN5C(=O)C(c5ccccc5F)N(C)C)[nH]4)cc3)cc2)[nH]1)c1ccccc1 (stereo partly drawn) [Example 84-59, methyl ((1R)-2-((2S)-2-(5-(4′-(2-((2S)-1-((dimethylamino)(2-fluorophenyl)acetyl)-2-pyrrolidinyl)-1H-imidazol-5-yl)-4-biphenylyl)-1H-imidazol-2-yl)-1-pyrrolidinyl)-2-oxo-1-phenylethyl)carbamate]	0.001 to 0.999	
COC(=O)N[C@@H](C(=O)N1CCC[C@H]1c1ncc(-c2ccc(-c3ccc(-c4cnc([C@@H]5CCCN5C(=O)C(c5cccc(F)c5)N(C)C)[nH]4)cc3)cc2)[nH]1)c1ccccc1 (stereo partly drawn) [Example 84-60, methyl ((1R)-2-((2S)-2-(5-(4′-(2-((2S)-1-((dimethylamino)(3-fluorophenyl)acetyl)-2-pyrrolidinyl)-1H-imidazol-5-yl)-4-biphenylyl)-1H-imidazol-2-yl)-1-pyrrolidinyl)-2-oxo-1-phenylethyl)carbamate]	0.001 to 0.999	
COC(=O)N[C@@H](C(=O)N1CCC[C@H]1c1ncc(-c2ccc(-c3ccc(-c4cnc([C@@H]5CCCN5C(=O)C(c5ccccn5)N(C)C)[nH]4)cc3)cc2)[nH]1)c1ccccc1 (stereo partly drawn) [Example 84-61, methyl ((1R)-2-((2S)-2-(5-(4′-(2-((2S)-1-((dimethylamino)(2-pyridinyl)acetyl)-2-pyrrolidinyl)-1H-imidazol-5-yl)-4-biphenylyl)-1H-imidazol-2-yl)-1-pyrrolidinyl)-2-oxo-1-phenylethyl)carbamate]	0.001 to 0.999	
COC(=O)N[C@@H](C(=O)N1CCC[C@H]1c1nc(-c2ccc(-c3ccc(-c4cnc([C@@H]5CCCN5C(=O)C(c5cccnc5)N(C)C)[nH]4)cc3)cc2)c[nH]1)c1ccccc1 (stereo partly drawn) [Example 84-62, methyl ((1R)-2-((2S)-2-(4-(4′-(2-((2S)-1-((dimethylamino)(3-pyridinyl)acetyl)-2-pyrrolidinyl)-1H-imidazol-5-yl)-4-biphenylyl)-1H-imidazol-2-yl)-1-pyrrolidinyl)-2-oxo-1-phenylethyl)carbamate]	0.001 to 0.999	
COC(=O)N[C@@H](C(=O)N1CCC[C@H]1c1ncc(-c2ccc(-c3ccc(-c4cnc([C@@H]5CCCN5C(=O)Cc5ccc(OC)cc5)[nH]4)cc3)cc2)[nH]1)c1ccccc1 [Example 84-63, methyl ((1R)-2-((2S)-2-(5-(4′-(2-((2S)-1-((4-methoxyphenyl)acetyl)-2-pyrrolidinyl)-1H-imidazol-5-yl)-4-biphenylyl)-1H-imidazol-2-yl)-1-pyrrolidinyl)-2-oxo-1-phenylethyl)carbamate]	0.001 to 0.999	
COC(=O)N[C@@H](C(=O)N1CCC[C@H]1c1ncc(-c2ccc(-c3ccc(-c4cnc([C@@H]5CCCN5C(=O)Cc5cccc(OC)c5)[nH]4)cc3)cc2)[nH]1)c1ccccc1 [Example 84-64, methyl ((1R)-2-((2S)-2-(5-(4′-(2-((2S)-1-((3-methoxyphenyl)acetyl)-2-pyrrolidinyl)-1H-imidazol-5-yl)-4-biphenylyl)-1H-imidazol-2-yl)-1-pyrrolidinyl)-2-oxo-1-phenylethyl)carbamate]	0.001 to 0.999	
COC(=O)N[C@@H](C(=O)N1CCC[C@H]1c1ncc(-c2ccc(-c3ccc(-c4cnc([C@@H]5CCCN5C(=O)Cc5ccccc5OC)[nH]4)cc3)cc2)[nH]1)c1ccccc1 [Example 84-65, methyl ((1R)-2-((2S)-2-(5-(4′-(2-((2S)-1-((2-methoxyphenyl)acetyl)-2-pyrrolidinyl)-1H-imidazol-5-yl)-4-biphenylyl)-1H-imidazol-2-yl)-1-pyrrolidinyl)-2-oxo-1-phenylethyl)carbamate]		EC50 range against HCV 1b (Table 2, Range): C-D
